What was measured:
Format in all cases: biochemical
Pim-1 = Pim-1 (Homo sapiens (Human), UniProt P11309); assay: Pim-1 kinase assay; settings: 1 mM ATP, biotin-labeled BAD peptide substrate; read-out: Pim1 IC50
Summary of the method: (§1)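 Biotin-BAD peptide ([…]) phosphorylated with 1 mM ATP by 2.5 pM Pim-1 or 1.25 pM Pim-3, 1 h at 25 °C in Tris pH 7.5, MgCl2, DTT buffer. EDTA stop with anti-phospho-BAD (Ser112) antibody and AlphaScreen streptavidin donor/Protein-A acceptor beads; signal read after 1 h dark incubation.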

Pim-2 = Pim-2 (Homo sapiens (Human), UniProt Q9P1W9); assay: Pim-2 kinase assay; settings: 1 mM ATP, fluorescein-labeled CREBtide peptide substrate; read-out: Pim2 IC50
Summary of the method: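 TR-FRET assay: 1 nM Pim-2 with 0.05 μM fluorescein-CREBtide and 1 mM ATP in Tris pH 7.5, 5 mM MgCl2, 5 mM DTT, 2 h at 25 °C. EDTA stop, then Tb-anti-pCREB Ser133 antibody for 30 min before reading.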

Pim-3 = Pim-3 (Homo sapiens (Human), UniProt Q86V86); assay: Pim-3 kinase assay; settings: 1 mM ATP, biotin-labeled BAD peptide substrate; read-out: Pim3 IC50
Summary of the method: as §1

Pim-2, sequence (Q9P1W9 whole entry): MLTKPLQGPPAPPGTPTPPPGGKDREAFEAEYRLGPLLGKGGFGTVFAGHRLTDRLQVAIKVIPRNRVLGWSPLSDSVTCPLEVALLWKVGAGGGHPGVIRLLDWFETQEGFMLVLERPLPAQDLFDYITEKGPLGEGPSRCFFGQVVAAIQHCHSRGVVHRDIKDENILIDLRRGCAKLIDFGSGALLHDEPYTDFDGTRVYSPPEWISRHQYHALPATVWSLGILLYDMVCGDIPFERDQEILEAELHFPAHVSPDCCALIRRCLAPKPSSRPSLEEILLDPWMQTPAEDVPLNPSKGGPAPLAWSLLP
Pim-1, sequence (P11309 whole entry): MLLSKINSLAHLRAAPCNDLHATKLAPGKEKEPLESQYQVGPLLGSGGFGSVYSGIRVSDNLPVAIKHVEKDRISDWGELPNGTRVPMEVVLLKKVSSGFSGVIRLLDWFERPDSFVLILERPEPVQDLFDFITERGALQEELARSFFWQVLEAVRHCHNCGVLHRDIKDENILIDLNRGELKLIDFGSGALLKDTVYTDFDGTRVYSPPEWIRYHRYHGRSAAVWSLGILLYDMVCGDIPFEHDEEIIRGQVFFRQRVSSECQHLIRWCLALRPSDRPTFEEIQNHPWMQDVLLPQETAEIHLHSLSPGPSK

C[C@@H]1C[C@H](N)CN(c2ccncc2NC(=O)c2c(N)oc3cc(Cl)cnc23)C1 [Example 72, 2-Amino-N-{4-[(3S,5R)-3-amino-5-methyl-piperidin-1-yl]pyridin-3-yl}-6-chlorofuro[3,2-b]pyridine-3-carboxamide]
IC50 (Pim-1): ≤ 10 nM
IC50 (Pim-2): 10 to 100 nM
IC50 (Pim-3): ≤ 10 nM

C[C@@H]1C[C@H](N)CN(c2ccncc2NC(=O)c2c(N)oc3cc(C(F)(F)F)cnc23)C1 [Example 73, 2-Amino-N-{4-[(3S,5R)-3-amino-5-methyl-piperidin-1-yl]pyridin-3-yl}-6-(trifluoromethyl)-furo[3,2-b]pyridine-3-carboxamide]
IC50 (Pim-1): ≤ 10 nM
IC50 (Pim-2): 10 to 100 nM
IC50 (Pim-3): ≤ 10 nM

C[C@H]1CN(c2ccncc2NC(=O)c2c(N)oc3cccnc23)C[C@@H](N)[C@@H]1O [Example 74, 2-Amino-N-{4-[(3R,4R,5S)-3-amino-4-hydroxy-5-methylpiperidin-1-yl]pyridin-3-yl}-furo[3,2-b]pyridine-3-carboxamide]
IC50 (Pim-1): ≤ 10 nM
IC50 (Pim-2): 10 to 100 nM
IC50 (Pim-3): ≤ 10 nM

CC(C)c1cnc2c(C(=O)Nc3cnccc3N3C[C@@H](N)[C@H](O)[C@@H](C)C3)c(N)oc2c1 [Example 75, 2-Amino-N-{4-[(3R,4R,5S)-3-amino-4-hydroxy-5-methylpiperidin-1-yl]pyridin-3-yl}-6-isopropylfuro[3,2-b]pyridine-3-carboxamide]
IC50 (Pim-1): ≤ 10 nM
IC50 (Pim-2): 10 to 100 nM
IC50 (Pim-3): ≤ 10 nM

Cc1cncc(NC(=O)c2c(N)oc3cccnc23)c1N1C[C@@H](N)[C@H](O)[C@@H](C)C1 [Example 76, 2-Amino-N-{5-methyl-4-[(3R,4R,5S)-3-amino-4-hydroxy-5-methylpiperidin-1-yl]pyridin-3-yl}-furo[3,2-b]pyridine-3-carboxamide]
IC50 (Pim-1): ≤ 10 nM
IC50 (Pim-2): 100 to 1000 nM
IC50 (Pim-3): ≤ 10 nM

CCCc1cnc2c(C(=O)Nc3cncc(C)c3N3C[C@@H](N)[C@H](O)[C@@H](C)C3)c(N)oc2c1 [Example 77, 2-Amino-N-{5-methyl-4-[(3R,4R,5S)-3-amino-4-hydroxy-5-methylpiperidin-1-yl]pyridin-3-yl}-6-propylfuro[3,2-b]pyridine-3-carboxamide]
IC50 (Pim-1): ≤ 10 nM
IC50 (Pim-2): ≤ 10 nM
IC50 (Pim-3): ≤ 10 nM

Cc1cncc(NC(=O)c2c(N)oc3cc(Cl)cnc23)c1N1C[C@@H](N)[C@H](O)[C@@H](C)C1 [Example 78, 2-Amino-N-{5-methyl-4-[(3R,4R,5S)-3-amino-4-hydroxy-5-methylpiperidin-1-yl]pyridin-3-yl}-6-chlorofuro[3,2-b]pyridine-3-carboxamide]
IC50 (Pim-1): ≤ 10 nM
IC50 (Pim-2): 10 to 100 nM
IC50 (Pim-3): ≤ 10 nM

Cc1cncc(NC(=O)c2c(N)oc3cc(C(F)(F)F)cnc23)c1N1C[C@@H](N)[C@H](O)[C@@H](C)C1 [Example 79, 2-Amino-N-{5-methyl-4-[(3R,4R,5S)-3-amino-4-hydroxy-5-methylpiperidin-1-yl]pyridin-3-yl}-6-(trifluoromethyl)-furo[3,2-b]pyridine-3-carboxamide]
IC50 (Pim-1): ≤ 10 nM
IC50 (Pim-2): 10 to 100 nM
IC50 (Pim-3): ≤ 10 nM

CCCc1cnc2c(C(=O)Nc3cnccc3N3CC[C@@H](F)[C@H](N)C3)c(N)oc2c1 [Example 80, 2-Amino-N-{4-[(3R,4R)-3-amino-4-fluoro-piperidin-1-yl]pyridin-3-yl}-6-propylfuro[3,2-b]pyridine-3-carboxamide]
IC50 (Pim-1): ≤ 10 nM
IC50 (Pim-2): 100 to 1000 nM
IC50 (Pim-3): ≤ 10 nM

Nc1oc2c(Cl)ccnc2c1C(=O)Nc1cnccc1N1CCC[C@H](N)C1 [Example 81, 2-Amino-N-{4-[(3S)-3-aminopiperidin-1-yl]pyridin-3-yl}-7-chloro-furo[3,2-b]pyridine-3-carboxamide]
IC50 (Pim-1): ≤ 10 nM
IC50 (Pim-2): ≤ 10 nM
IC50 (Pim-3): ≤ 10 nM

CCCc1cnc2c(C(=O)Nc3cnccc3N3C[C@@H](N)[C@H](O)[C@@H](C4CC4)C3)c(N)oc2c1 [Example 82, 2-Amino-N-{4-[(3R,4R,5S)-3-amino-5-cyclopropyl-4-hydroxypiperidin-1-yl]pyridin-3-yl}-6-propylfuro[3,2-b]pyridine-3-carboxamide]
IC50 (Pim-1): ≤ 10 nM
IC50 (Pim-2): ≤ 10 nM
IC50 (Pim-3): ≤ 10 nM

C[C@H]1C[C@@H](c2ccncc2NC(=O)c2c(N)oc3cccnc23)C[C@@H](N)[C@]1(C)O [Example 83, 2-Amino-N-(4-((1R,3R,4R,5S)-3-amino-4-hydroxy-4,5-dimethylcyclohexyl)pyridin-3-yl)furo[3,2-b]pyridine-3-carboxamide]
IC50 (Pim-1): ≤ 10 nM
IC50 (Pim-2): 100 to 1000 nM
IC50 (Pim-3): ≤ 10 nM

CCCc1cnc2c(C(=O)Nc3cnccc3[C@H]3C[C@@H](N)[C@](C)(O)[C@@H](C)C3)c(N)oc2c1 [Example 84, 2-Amino-N-(4-((1R,3R,4R,5S)-3-amino-4-hydroxy-4,5-dimethylcyclohexyl)pyridin-3-yl)-6-propylfuro[3,2-b]pyridine-3-carboxamide]
IC50 (Pim-1): ≤ 10 nM
IC50 (Pim-2): 10 to 100 nM
IC50 (Pim-3): ≤ 10 nM

CCCc1cnc2c(C(=O)Nc3cnccc3N3C[C@@H](N)[C@](C)(O)[C@@H](C)C3)c(N)oc2c1 [Example 85, 2-Amino-N-{4-[(3R,4R,5S)-3-amino-4-hydroxy-4,5-dimethylpiperidin-1-yl]pyridin-3-yl}-6-propylfuro[3,2-b]pyridine-3-carboxamide]
IC50 (Pim-1): ≤ 10 nM
IC50 (Pim-2): ≤ 10 nM
IC50 (Pim-3): ≤ 10 nM

CCCc1cnc2c(C(=O)Nc3cnccc3N3C[C@@H](N)[C@@](C)(O)[C@@H](C)C3)c(N)oc2c1 [Example 86, 2-Amino-N-{4-[(3R,4S,5S)-3-amino-4-hydroxy-4,5-dimethylpiperidin-1-yl]pyridin-3-yl}-6-propylfuro[3,2-b]pyridine-3-carboxamide]
IC50 (Pim-1): ≤ 10 nM
IC50 (Pim-2): ≤ 10 nM
IC50 (Pim-3): ≤ 10 nM

Nc1sc2cccnc2c1C(=O)Nc1cnsc1N1CCC[C@H](N)C1 [Example 88, 2-Amino-N-{5-[(3S)-3-aminopiperidin-1-yl]isothiazol-4-yl}thieno[3,2-b]pyridine-3-carboxamide]
IC50 (Pim-1): ≤ 10 nM
IC50 (Pim-2): 100 to 1000 nM
IC50 (Pim-3): ≤ 10 nM

CC(C)c1cnc2c(C(=O)Nc3cnccc3N3C[C@@H](N)[C@H](O)[C@@H](C4CC4)C3)c(N)oc2c1 [Example 89, 2-Amino-N-{4-[(3R,4R,5S)-3-amino-5-cyclopropyl-4-hydroxypiperidin-1-yl]pyridin-3-yl}-6-isopropylfuro[3,2-b]pyridine-3-carboxamide]
IC50 (Pim-1): ≤ 10 nM
IC50 (Pim-2): ≤ 10 nM
IC50 (Pim-3): ≤ 10 nM

Cn1ncc(NC(=O)c2c(N)oc3cc(C4CCOCC4)cnc23)c1N1C[C@@H](N)C[C@@H](C(F)(F)F)C1 [Example 90, 2-Amino-N-{5-[(3S,5R)-3-amino-5-(trifluoromethyl)piperidin-1-yl]-1-methyl-1H-pyrazol-4-yl}-6-(tetrahydro-2H-pyran-4-yl)furo[3,2-b]pyridine-3-carboxamide]
IC50 (Pim-1): ≤ 10 nM
IC50 (Pim-2): 10 to 100 nM
IC50 (Pim-3): ≤ 10 nM

Nc1oc2cc(C3CCOCC3)cnc2c1C(=O)Nc1cnsc1N1C[C@@H](N)C[C@@H](C(F)(F)F)C1 [Example 91, 2-Amino-N-{5-[(3S,5R)-3-amino-5-(trifluoromethyl)piperidin-1-yl]isothiazol-4-yl}-6-(tetrahydro-2H-pyran-4-yl)furo[3,2-b]pyridine-3-carboxamide]
IC50 (Pim-1): ≤ 10 nM
IC50 (Pim-2): 10 to 100 nM
IC50 (Pim-3): ≤ 10 nM

Nc1oc2cc(C3CCOCC3)cnc2c1C(=O)Nc1cnccc1N1C[C@@H](N)C[C@@H](C(F)(F)F)C1 [Example 92, 2-Amino-N-{4-[(3S,5R)-3-amino-5-(trifluoromethyl)piperidin-1-yl]pyridin-3-yl}-6-(tetrahydro-2H-pyran-4-yl)furo[3,2-b]pyridine-3-carboxamide]
IC50 (Pim-1): ≤ 10 nM
IC50 (Pim-2): ≤ 10 nM
IC50 (Pim-3): ≤ 10 nM

CN1CCC(c2cnc3c(C(=O)Nc4cnccc4N4C[C@@H](N)C[C@@H](C(F)(F)F)C4)c(N)oc3c2)CC1 [Example 93, 2-Amino-N-{4-[(3S,5R)-3-amino-5-(trifluoromethyl)piperidin-1-yl]pyridin-3-yl}-6-(1-methylpiperidin-4-yl)furo[3,2-b]pyridine-3-carboxamide]
IC50 (Pim-1): ≤ 10 nM
IC50 (Pim-2): 10 to 100 nM
IC50 (Pim-3): ≤ 10 nM

CN1CCC(c2cnc3c(C(=O)Nc4cnn(C)c4N4C[C@@H](N)C[C@@H](C(F)(F)F)C4)c(N)oc3c2)CC1 [Example 94, 2-Amino-N-{5-[(3S,5R)-3-amino-5-(trifluoromethyl)piperidin-1-yl]-1-methyl-1H-pyrazol-4-yl}-6-(1-methylpiperidin-4-yl)furo[3,2-b]pyridine-3-carboxamide]
IC50 (Pim-1): ≤ 10 nM
IC50 (Pim-2): 10 to 100 nM
IC50 (Pim-3): ≤ 10 nM

C[C@@H]1C[C@H](N)CN(c2ccncc2NC(=O)c2c(N)oc3cc(C4CCOCC4)cnc23)C1 [Example 95, 2-Amino-N-{4-[(3S,5R)-3-amino-5-methylpiperidin-1-yl]pyridin-3-yl}-6-(tetrahydro-2H-pyran-4-yl)furo[3,2-b]pyridine-3-carboxamide]
IC50 (Pim-1): ≤ 10 nM
IC50 (Pim-2): 10 to 100 nM
IC50 (Pim-3): ≤ 10 nM

C[C@@H]1C[C@H](N)CN(c2sncc2NC(=O)c2c(N)oc3cc(C4CCOCC4)cnc23)C1 [Example 96]
IC50 (Pim-1): ≤ 10 nM
IC50 (Pim-2): 10 to 100 nM
IC50 (Pim-3): ≤ 10 nM

C[C@@H]1C[C@H](N)CN(c2ccncc2NC(=O)c2c(N)oc3cc(C4CCC4)cnc23)C1 [Example 97, 2-Amino-N-{4-[(3S,5R)-3-amino-5-methylpiperidin-1-yl]pyridin-3-yl}-6-cyclobutylfuro[3,2-b]pyridine-3-carboxamide]
IC50 (Pim-1): ≤ 10 nM
IC50 (Pim-2): ≤ 10 nM
IC50 (Pim-3): ≤ 10 nM

From patent US10000507B2, “Furo- and thieno-pyridine carboxamide compounds useful as pim kinase inhibitors” (Incyte Corporation, priority 2013, dated 2018)
